# In US10874631B2, “Altertoxin II as a selective inhibitor of Ewing family of tumor cells” (priority 2016, dated 2020):
# System: Ewing sarcoma cells
# Assay: Panel of 5 pediatric cancer cell lines, selective cytotoxicity
# Type: cell-based
# Conditions: 5 types of solid pediatric cancers
compound,measurement,value
"O=C1C[C@H](O)[C@@H]2c3c(ccc(O)c31)-c1ccc(O)c3c1[C@@]2(O)CCC3=O [Altertoxin I, altertoxin I]",selective cytotoxic activity against Ewing sarcoma cells,did not show selective cytotoxic activity
